{"source": "patent US6783757B2", "about": "“Composition and method for increasing exorphin catabolism to treat autism” (Kirkman Group, Inc., priority 2000, dated 2004)", "origin": "cited, not measured here", "test_system": "DPPIV", "details": "cultured mouse intestinal wall cells (enterocyte cells)"}
{"smiles": "O=C[C@H](O)[C@@H](O)[C@@H](O)[C@H](O)CO", "note": "[galactose]", "values": [{"measurement": "expression of DPPIV", "value": "increase the expression of DPPIV"}]}
